Drawing on patent US9404081B2, “Pyruvate kinase activators for use in therapy” (AGIOS PHARMACEUTICALS, INC., priority 2011, dated 2016), this text covers activation for 31 compounds.

Format in all cases: biochemical
In one test the target is PKR R510Q (Homo sapiens, UniProt P30613, R510Q). Briefly: PKR R510Q Single Point Percent Activation Assay. Particulars: read-out: Act. % 510Q. In short, it runs like this:
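Test compound was used at a single concentration of 1 μM and preincubated 60 min at room temperature with PKR R510Q (40 ng/well). The buffer was 50 mM Tris pH 7.5, 100 mM KCl, 5 mM MgCl2, 1 mM DTT and 0.03% BSA. The reaction was started with 0.2 mM ADP and read as OD340 in an LDH-coupled system (0.11 mM PEP, 180 μM NADH).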

For another test, the target named is PKR R532W (Homo sapiens, UniProt P30613, R532W). The experiment in a line: PKR R532W Single Point Percent Activation Assay. Particulars: read-out: Act, % 532W. In outline:
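PKR R532W (100 ng/well) preincubated 60 min at RT with compound at 1 μM in Tris pH 7.5, KCl, MgCl2, DTT, BSA. Reaction started with ADP (0.36 mM), with PEP 0.1 mM, NADH 180 μM and LDH coupling; read at OD340, room temperature.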

The next test deals with PKR T384W (Homo sapiens, UniProt P30613, T384W). Briefly: PKR T384W Single Point Percent Activation Assay. Particulars: read-out: Act. % 384W. In short, it runs like this: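 Soluble PKR T384W (300 ng/well) preincubated 60 min at RT with 1 μM compound in 50 mM Tris pH 7.5, 100 mM KCl, 5 mM MgCl2, 1 mM DTT, 0.03% BSA. Started with ADP (0.08 mM); PEP 0.23 mM, LDH-coupled NADH (180 μM) consumption read at OD340, room temperature.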
Chain of PKR T384W (P30613 whole entry T384W): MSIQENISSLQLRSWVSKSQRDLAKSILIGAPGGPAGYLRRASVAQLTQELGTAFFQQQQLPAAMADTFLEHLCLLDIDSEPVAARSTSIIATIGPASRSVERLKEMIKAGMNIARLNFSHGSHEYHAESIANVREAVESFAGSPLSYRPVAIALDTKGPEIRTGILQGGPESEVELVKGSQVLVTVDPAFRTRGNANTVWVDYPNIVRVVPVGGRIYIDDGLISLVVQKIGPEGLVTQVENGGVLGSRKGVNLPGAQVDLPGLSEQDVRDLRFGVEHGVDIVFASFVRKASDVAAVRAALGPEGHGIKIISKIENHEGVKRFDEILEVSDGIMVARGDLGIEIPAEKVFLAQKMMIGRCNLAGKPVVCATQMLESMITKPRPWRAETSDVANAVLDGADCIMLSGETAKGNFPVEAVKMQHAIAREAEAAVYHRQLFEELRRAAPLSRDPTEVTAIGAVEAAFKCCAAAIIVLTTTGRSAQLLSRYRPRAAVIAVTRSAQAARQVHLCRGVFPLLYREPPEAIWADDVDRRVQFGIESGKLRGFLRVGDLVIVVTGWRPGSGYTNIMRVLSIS

The target of a further test is PKR wt (Homo sapiens, UniProt P30613). Briefly: PKR WT Single Point Percent Activation Assay. In short, it runs like this:
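Single concentration of 1 μM compound preincubated 60 min at RT with PKR wt (100 ng/well) in Tris pH 7.5, KCl, MgCl2, DTT, BSA. Reaction started with ADP (0.48 mM final) with PEP 0.15 mM, coupled LDH/NADH (180 μM), read at OD340, room temperature; given as percent activation.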

Chain of PKR wt (P30613 whole entry): as the sequence (P30613 whole entry T384W) above, with W384T counted along it
Chain of PKR R510Q (P30613 whole entry R510Q): as the sequence (P30613 whole entry T384W) above, with W384T, R510Q counted along it
Chain of PKR R532W (P30613 whole entry R532W): as the sequence (P30613 whole entry T384W) above, with W384T, R532W counted along it

In the case of `CC(C)COC(=O)N1[C@H](C)CN(C(=O)c2ccc(NS(=O)(=O)c3cccc4cccnc34)cc2)C[C@@H]1C`, the activation at 1 µM at PKR R510Q lay within 101 to 500%; on PKR R532W, 1 to 100%; on PKR T384W, 101 to 500%; at PKR wt, 101 to 500%.
Consider `CC(C)OC(=O)N1CCN(C(=O)c2ccc(NS(=O)(=O)c3cccc4cccnc34)cc2)[C@@H](C)C1`, for which the activation at 1 µM lay in the range of 101 to 500% at PKR R510Q, 101 to 500% at PKR R532W, 1 to 100% at PKR T384W and 1 to 100% on PKR wt.
With `C[C@H]1CN(C(=O)OCC2CC2)CCN1C(=O)c1ccc(NS(=O)(=O)c2cccc3cccnc23)cc1`, the activation at 1 µM lay within 1 to 100% at PKR R510Q, 101 to 500% on PKR R532W, 101 to 500% on PKR T384W and 101 to 500% on PKR wt.
Consider `C[C@@H]1CN(C(=O)OCC2CC2)CCN1C(=O)c1ccc(NS(=O)(=O)c2cccc3cccnc23)cc1`, for which the activation at 1 µM on PKR R510Q fell in the range of 1 to 100%; at PKR R532W, 101 to 500%; at PKR T384W, 1 to 100%; at PKR wt it was 1 to 100%.
With `COc1ccccc1N1C[C@@H](C)N(C(=O)c2ccc(NS(=O)(=O)c3cccc4cccnc34)cc2)[C@@H](C)C1`, the activation at 1 µM at PKR R510Q, on PKR R532W, on PKR T384W and on PKR wt was 101 to 500% each time.
Regarding `C[C@@H]1CN(CC2CC2)CCN1C(=O)c1ccc(NS(=O)(=O)c2cccc3cccnc23)cc1`, the activation at 1 µM lay in the range of 101 to 500% on PKR R510Q, 1 to 100% on PKR R532W, 101 to 500% at PKR T384W and 101 to 500% on PKR wt.
`C[C@@H]1CN(CC2CCCC2)CCN1C(=O)c1ccc(NS(=O)(=O)c2cccc3cccnc23)cc1`: the activation at 1 µM on PKR R510Q lay in the range of 1 to 100%; on PKR R532W it was 1 to 100%; on PKR T384W, 101 to 500%; at PKR wt, 1 to 100%.
`C[C@@H]1CN(CC2CCOC2)CCN1C(=O)c1ccc(NS(=O)(=O)c2cccc3cccnc23)cc1` (stereo partly shown): the activation at 1 µM on PKR R510Q, on PKR R532W, at PKR T384W and on PKR wt was 101 to 500% throughout.
As to `C[C@@H]1CN(C(=O)c2ccccn2)C[C@H](C)N1C(=O)c1ccc(NS(=O)(=O)c2cccc3cccnc23)cc1`, the activation at 1 µM on PKR R510Q was in the range of 1 to 100%; at PKR R532W, 1 to 100%; on PKR T384W, 1 to 100%; at PKR wt, 101 to 500%.
Take `CCOC(=O)N1[C@H](C)CN(C(=O)c2ccc(NS(=O)(=O)c3cccc4cccnc34)cc2)C[C@@H]1C`: the activation at 1 µM on PKR R510Q, at PKR R532W, at PKR T384W and on PKR wt was 101 to 500% each time.
Turning to `C[C@@H]1CN(Cc2ccc(F)c(F)c2F)CCN1C(=O)c1ccc(NS(=O)(=O)c2cccc3cccnc23)cc1`, the activation at 1 µM at PKR R510Q lay in the range of 101 to 500%; on PKR R532W, 1 to 100%; at PKR T384W, 101 to 500%; on PKR wt, 1 to 100%.
With `C[C@@H]1CN(Cc2cc(F)cc(F)c2)CCN1C(=O)c1ccc(NS(=O)(=O)c2cccc3cccnc23)cc1`, the activation at 1 µM at PKR R510Q, on PKR R532W, on PKR T384W and on PKR wt was 1 to 100% in each case.
As to `C[C@@H]1CN(Cc2cc(F)c(F)cc2F)CCN1C(=O)c1ccc(NS(=O)(=O)c2cccc3cccnc23)cc1`, the activation at 1 µM at PKR R510Q, at PKR R532W, at PKR T384W and on PKR wt was 1 to 100% throughout.
As to `C[C@@H]1CN(C(=O)OCCC2CCCCC2)CCN1C(=O)c1ccc(NS(=O)(=O)c2cccc3cccnc23)cc1`, the activation at 1 µM at PKR R510Q, on PKR R532W, at PKR T384W and at PKR wt was 1 to 100% each time.
In the case of `C[C@@H]1CN(C(=O)OCCC2CCCC2)CCN1C(=O)c1ccc(NS(=O)(=O)c2cccc3cccnc23)cc1`, the activation at 1 µM at PKR R510Q, at PKR R532W, at PKR T384W and at PKR wt was 1 to 100% in each case.
With `C[C@@H]1CN(C(=O)OC2CCCCC2)CCN1C(=O)c1ccc(NS(=O)(=O)c2cccc3cccnc23)cc1`, the activation at 1 µM on PKR R510Q, at PKR R532W, at PKR T384W and at PKR wt was 1 to 100% in each case.
`C[C@@H]1CN(C(=O)OC2CCOCC2)CCN1C(=O)c1ccc(NS(=O)(=O)c2cccc3cccnc23)cc1`: the activation at 1 µM on PKR R510Q, on PKR R532W, on PKR T384W and on PKR wt was 1 to 100% each time.
On to `C[C@@H]1CN(Cc2ccc(Cl)c(F)c2)CCN1C(=O)c1ccc(NS(=O)(=O)c2cccc3cccnc23)cc1`, for which the activation at 1 µM on PKR R510Q fell in the range of 1 to 100%; on PKR R532W, 101 to 500%; at PKR T384W, 1 to 100%; on PKR wt it was 101 to 500%.
On to `C[C@@H]1CN(C(=O)O[C@@H]2CCOC2)CCN1C(=O)c1ccc(NS(=O)(=O)c2cccc3cccnc23)cc1`, for which the activation at 1 µM at PKR R510Q fell in the range of 1 to 100%; at PKR R532W, 101 to 500%; on PKR T384W it was 1 to 100%; at PKR wt, 101 to 500%.
Turning to `C[C@@H]1CN(C(=O)OC2CCCOC2)CCN1C(=O)c1ccc(NS(=O)(=O)c2cccc3cccnc23)cc1` (stereo partly shown), the activation at 1 µM on PKR R510Q, on PKR R532W, at PKR T384W and on PKR wt was 101 to 500% throughout.
As for `C[C@@H]1CN(C(=O)OCC2CCCO2)CCN1C(=O)c1ccc(NS(=O)(=O)c2cccc3cccnc23)cc1` (stereo partly shown), the activation at 1 µM at PKR R510Q fell in the range of 1 to 100%; on PKR R532W it was 1 to 100%; at PKR T384W, 1 to 100%; on PKR wt, 101 to 500%.
Consider `C[C@@H]1CN(C(=O)OC2CCCC2)CCN1C(=O)c1ccc(NS(=O)(=O)c2cccc3cccnc23)cc1`, for which the activation at 1 µM at PKR R510Q, at PKR R532W, at PKR T384W and on PKR wt was 101 to 500% in each case.
For the compound `COc1cccc(CN2CCN(C(=O)c3ccc(NS(=O)(=O)c4cccc5cccnc45)cc3)[C@H](C)C2)c1OC`, the activation at 1 µM on PKR R510Q lay in the range of 1 to 100%; at PKR R532W, 101 to 500%; on PKR T384W it was 101 to 500%; on PKR wt it was 101 to 500%.
As to `C[C@@H]1CN(Cc2ccc(F)cc2)CCN1C(=O)c1ccc(NS(=O)(=O)c2cccc3cccnc23)cc1`, the activation at 1 µM on PKR R510Q was 1 to 100%; at PKR R532W it was 101 to 500%; on PKR T384W it was 101 to 500%; at PKR wt, 101 to 500%.
As for `C[C@@H]1CN(Cc2c(F)ccc(F)c2F)CCN1C(=O)c1ccc(NS(=O)(=O)c2cccc3cccnc23)cc1`, the activation at 1 µM on PKR R510Q was in the range of 1 to 100%; on PKR R532W it was 101 to 500%; on PKR T384W it was 101 to 500%; at PKR wt, 101 to 500%.
For the compound `CC(c1ccc(F)cc1)N1CCN(C(=O)c2ccc(NS(=O)(=O)c3cccc4cccnc34)cc2)[C@H](C)C1` (stereo partly shown), the activation at 1 µM on PKR R510Q, at PKR R532W, on PKR T384W and on PKR wt was 101 to 500% in each case.
Turning to `CC[C@H]1CN(Cc2ccc(F)cc2)CCN1C(=O)c1ccc(NS(=O)(=O)c2cccc3cccnc23)cc1`, the activation at 1 µM at PKR R510Q lay within 1 to 100%; at PKR R532W it was 101 to 500%; at PKR T384W, 101 to 500%; at PKR wt, 101 to 500%.
As to `CC(c1cc(F)cc(F)c1)N1CCN(C(=O)c2ccc(NS(=O)(=O)c3cccc4cccnc34)cc2)[C@H](C)C1` (stereo partly shown), the activation at 1 µM on PKR R510Q, at PKR R532W, on PKR T384W and at PKR wt was 101 to 500% each time.
For the compound `O=C(c1ccc(NS(=O)(=O)c2cccc3cccnc23)cc1)N1C2CCC1CN(Cc1ccc(F)cc1)C2`, the activation at 1 µM on PKR R510Q was in the range of 101 to 500%; at PKR R532W it was 1 to 100%; at PKR T384W, 101 to 500%; on PKR wt, 1 to 100%.
For `O=C(c1ccc(NS(=O)(=O)c2cccc3cccnc23)cc1)N1C2CCC1CN(Cc1cc(F)cc(F)c1)C2`, the activation at 1 µM at PKR R510Q, at PKR R532W, at PKR T384W and on PKR wt was 101 to 500% in each case.
As to `O=C(c1ccc(NS(=O)(=O)c2cccc3cccnc23)cc1)N1C2CCC1CN(CC1CC1)C2`, the activation at 1 µM was in the range of 1 to 100% on PKR R510Q, 101 to 500% at PKR R532W, 101 to 500% at PKR T384W and 101 to 500% on PKR wt.
